{"source": "patent US11959094B2", "about": "“Methods and compositions for genome editing in non-dividing cells” (Salk Institute for Biological Studies, priority 2016, dated 2024)", "test_system": "HEK293 GFP-correction line", "assay": "Targeted gene modification by HDR/HITI in HEK293 GFP-correction line", "format": "cell-based", "conditions": "NU7026 30 μM", "description": "Generation of HEK293 GFP-correction line. To assess the efficiency of targeted gene modification by HDR and HITI in dividing cells, a mutated GFP gene-based reporter system was established in HEK293. Briefly, pEGIP*35 was co-transfected with pMDLg/pRRE, pRSV-Rev and pMD2.G, packaged and purified as lentiviral vectors according to a published protocol Kutner, R. H., Zhang, X.-Y. & Reiser, J. Production, concentration and titration of pseudotyped HIV-1-based lentiviral vectors. Nature Protocols 4, 495-505 (2009). HEK293 cells were transduced in suspension with lentiviral EGIP*35 vector and 4 μg/ml polybrene for 1 h. After brief centrifugation to remove any residual lentiviral vector, the cells were seeded in 100 mm dishes. Three days after transduction, puromycin (1-2 μg/ml; Invitrogen) was added to the medium. After 10 days, single colonies were individually picked up and expanded as HEK293 GFP-correction line.\nTransfection of in vitro cultured cells. […]\nExisting methods were improved for more robust NHEJ-based targeted knock-in. […] The efficiencies of targeted gene replacement via HDR and homology-independent targeted integration (HITI) were determined by GFP and mCherry signals respectively (FIG. 1A). […]", "data": [{"smiles": "O=c1cc(N2CCOCC2)oc2c1ccc1ccccc12", "note": "[NU7026]", "values": [{"measurement": "effect of NHEJ inhibitor on efficiency of HITI", "value": "significantly decreased"}]}]}
